Laboratory results taken from patent US20250339546A1, “GLIOBLASTOMA TUMOR GROWTH INHIBITON BY SAT1 KNOCKDOWN” (BIOMARK CANCER SYSTEMS, INC., priority 2021, published 2025).
Read-outs that look alike come from different tables or passages of the source.

How the values were obtained:
BBB = assay: Bidirectional BBB permeability in the BBB microfluidic model
Description: Permeability coefficients are the mean±SD of 3 microfluidic units.
Finally, the bidirectional BBB permeability of amantadine and rimantadine, as well as their metabolites, was evaluated in the previously described model.

SAT1 [1] = molecular target: SAT1 (Homo sapiens, UniProt P21673)
Description: FIG. 17C SAT1 induction was confirmed by Western blot analysis of the protein sample. (mean=+SD, n=3).
Next, SAT1 activity was assessed in U251 cells via production of acetylated-amantadine after treatment with the SAT1 substrate amantadine, or the production of acetylated-rimantadine after treatment with the SAT1 substrate rimantadine.

NAT2 = NAT2 gene and protein expression in U251 cells; assay type: cell-based, human; conditions: 10 μM, 24 h and 48 h
SAT1 [2] = assay: SAT1 induction in U251 cells (mRNA and Western blot); assay type: cell-based, human; conditions: 10 μM, 24 and 48 hours
Description: SAT1 expression was next evaluated in U251 cells.

NAT1 = NAT1 gene and protein expression in U251 cells; assay type: cell-based, human; conditions: 10 μM, 24 h and 48 h
U251 glioblastoma cells = assay: Cell viability/proliferation MTT assay, U251; assay type: cell-based, human; conditions: combined with SAT1 knockdown, DOX 0.1 μM, TOPO 0.2 μM
Description: (§1) Cells were transfected in T-25 flask as discussed above. Forty-eight hours after transfection, the cells were seeded in 96-well plates (5000 cells/well). After 24-hours, the cells were exposed to no treatment or either 10 Gy radiation (RS-2000, Rad Source Technologies, Inc., Buford, GA, USA) or anticancer drugs carmustine (i.e., BCNU™ or BiCNU™) (100 μM), Doxorubicin (0.1 μM) and Topotecan (0.2 μM). After 24 hours, the media and treatments were removed and replaced with fresh media and cultured for 48 hours. The percentage of viable cells was determined using MTT assay (Norouzi et al, 2020).

macrophage cells (ANA-1) = assay: Cell viability/proliferation MTT assay, ANA-1; assay type: cell-based, murine; conditions: 0.1 μM
Description: as §1

SAT1 (Homo sapiens, UniProt P21673), sequence (P21673 whole entry): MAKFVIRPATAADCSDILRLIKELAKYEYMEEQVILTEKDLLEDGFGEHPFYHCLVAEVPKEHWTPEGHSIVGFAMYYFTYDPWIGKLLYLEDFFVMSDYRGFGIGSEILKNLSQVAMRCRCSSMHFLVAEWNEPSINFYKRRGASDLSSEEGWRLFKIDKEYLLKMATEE

## CC(=O)NC(C)C12CC3CC(CC(C3)C1)C2 (stereo not drawn) [Ac-rimantadine, acetylated-rimantadine]
BBB
  BBB permeability: able to cross the BBB from the brain to blood efficiently
SAT1 [1]
  earliest detection after induction: 5 min
  earliest detection after induction, in some cases: 3 min

## CCNCCCNCCCNCCCNCC [DENSPM, N(1),N(11)-diethylnorspermine]
NAT2
  NAT2 gene and protein expression levels: did not significantly change
SAT1 [2]
  SAT1 gene and protein expression: enhanced
NAT1
  NAT1 gene and protein expression levels: did not significantly change

## CC[C@@]1(O)C(=O)OCc2c1cc1n(c2=O)Cc2cc3c(CN(C)C)c(O)ccc3nc2-1 [TOPO, Topotecan]
U251 glioblastoma cells
  cell viabilities/proliferation: lowest

## NC12CC3CC(CC(C3)C1)C2 [amantadine]
BBB; from blood to the brain
  BBB permeability: able to cross

## CC(N)C12CC3CC(CC(C3)C1)C2 (stereo not drawn) [rimantadine]
BBB
  BBB permeability: able to cross
  BBB permeability relative to amantadine: slightly more permeable

## CC(=O)NC12CC3CC(CC(C3)C1)C2 [Ac-amantadine, acetylated-amantadine]
BBB; from the brain to blood
  BBB permeability: able to cross the BBB from the brain to blood efficiently
SAT1 [1]
  earliest detection after induction: 5 min
  earliest detection after induction, in some cases: 3 min

## COc1cccc2c1C(=O)c1c(O)c3c(c(O)c1C2=O)C[C@@](O)(C(=O)CO)C[C@@H]3O[C@H]1C[C@H](N)[C@H](O)[C@H](C)O1 [DOX, Doxorubicin]
Macrophage cells (ANA-1)
  sensitivity of cells to treatment: particularly sensitive
U251 glioblastoma cells
  cell viabilities/proliferation: lowest
